# Measured values from ChEMBL document CHEMBL4602703, “Lead Optimization of a Pyrrole-Based Dihydroorotate Dehydrogenase Inhibitor Series for the Treatment of Malaria” (J Med Chem, 2020).
# Legend:
# [1] = Inhibition of yeast DHODH transformed in Plasmodium falciparum D10 in presence of 10 uM proguanil; design: species or system Saccharomyces cerevisiae
# [2] = Protein binding in rat plasma by LC-MS analysis based ultracentrifugation assay; type: ADME, cell-free; settings: read-out: PPB (converted)
# Albumin [3] = biological target: T1, Albumin (Homo sapiens, UniProt P02768); test: Binding affinity to albumin (unknown origin) in ALBUMAX medium; type: ADME; settings: read-out: PB (converted)
# T1 sequence (P02768 whole entry): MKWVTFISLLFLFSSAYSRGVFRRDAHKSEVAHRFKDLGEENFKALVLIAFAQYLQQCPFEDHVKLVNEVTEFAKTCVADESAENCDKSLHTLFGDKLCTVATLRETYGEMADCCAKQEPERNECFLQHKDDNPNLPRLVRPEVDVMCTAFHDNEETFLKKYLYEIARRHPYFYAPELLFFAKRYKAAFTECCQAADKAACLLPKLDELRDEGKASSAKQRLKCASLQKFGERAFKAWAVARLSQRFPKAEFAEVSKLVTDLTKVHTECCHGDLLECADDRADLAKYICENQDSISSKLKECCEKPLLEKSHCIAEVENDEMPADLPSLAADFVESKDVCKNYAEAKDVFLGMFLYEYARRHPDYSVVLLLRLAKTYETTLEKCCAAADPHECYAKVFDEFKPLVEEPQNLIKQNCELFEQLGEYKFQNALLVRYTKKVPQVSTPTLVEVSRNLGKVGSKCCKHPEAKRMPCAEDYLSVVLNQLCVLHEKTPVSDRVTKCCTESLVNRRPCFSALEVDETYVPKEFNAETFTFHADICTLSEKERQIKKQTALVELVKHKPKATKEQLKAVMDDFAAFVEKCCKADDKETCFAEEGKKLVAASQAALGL
# Cytochrome P450 2C19 [4] = biological target: T2, Cytochrome P450 2C19 (Homo sapiens, UniProt P33261); test: Inhibition of CYP2C19 in human liver microsomes using (S)-mephenytoin as substrate measured for 10 to 30 mins in presence of NADPH regenerating system by UPLC-MS analysis; type: ADME
# T2 sequence (P33261 whole entry): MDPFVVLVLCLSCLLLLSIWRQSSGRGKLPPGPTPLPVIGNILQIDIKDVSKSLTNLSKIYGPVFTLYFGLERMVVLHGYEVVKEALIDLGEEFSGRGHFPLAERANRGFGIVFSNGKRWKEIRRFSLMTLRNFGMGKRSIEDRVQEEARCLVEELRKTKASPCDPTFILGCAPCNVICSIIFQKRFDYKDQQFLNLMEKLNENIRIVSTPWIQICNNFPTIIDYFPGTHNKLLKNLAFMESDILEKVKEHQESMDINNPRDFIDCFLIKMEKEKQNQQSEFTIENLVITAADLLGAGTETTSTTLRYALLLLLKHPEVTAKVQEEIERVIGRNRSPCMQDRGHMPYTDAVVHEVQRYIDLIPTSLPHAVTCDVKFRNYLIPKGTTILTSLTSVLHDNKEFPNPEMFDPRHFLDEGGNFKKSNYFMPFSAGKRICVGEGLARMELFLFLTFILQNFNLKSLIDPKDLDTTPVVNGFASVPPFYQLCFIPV
# [5] = AUC (0 to infinity) in Swiss mouse at […], iv administered as bolus dose measured up to 24 hrs by UPLC-MS analysis; type: ADME, organism-based; design: dose 2.8 mg/kg, route intravenous, time infinity; settings: in vivo
# [6] = Apparent half life in Swiss mouse at 18.3 mg/kg, po via gavage measured up to 24 hrs by UPLC-MS analysis; type: ADME, organism-based; settings: in vivo
# [7] = Cmax in Swiss mouse blood at 18.3 mg/kg, po via gavage measured up to 24 hrs by UPLC-MS analysis; type: ADME, organism-based; design: dose 18.3 mg/kg, route oral; settings: in vivo
# [8] = Oral bioavailability in Swiss mouse at 18.3 mg/kg dosed via gavage measured up to 24 hrs by UPLC-MS analysis; type: ADME, organism-based; settings: in vivo
# [9] = Cmax in Swiss mouse blood at 50 mg/kg, po via gavage measured up to 24 hrs by UPLC-MS analysis; type: ADME, organism-based; design: dose 50 mg/kg, route oral; settings: in vivo
# [10] = AUC (0 to infinity) in Swiss mouse blood at 50 mg/kg, po via gavage measured up to 24 hrs by UPLC-MS analysis; type: ADME, organism-based; design: dose 50 mg/kg, time infinity, route oral; settings: in vivo
# [11] = Apparent half life in Sprague-Dawley rat at […], iv administered as infusion for 10 mins and measured up to 24 hrs by LC-MS analysis; type: ADME, organism-based; settings: in vivo, read-out: t1/2(app) (converted)
# [12] = Clearance in Sprague-Dawley rat plasma at […], iv administered as infusion for 10 mins and measured up to 24 hrs by LC-MS analysis; type: ADME, organism-based; settings: in vivo
# [13] = Volume of distribution at steady state in Sprague-Dawley rat at […], iv administered as infusion for 10 mins and measured up to 24 hrs by LC-MS analysis; type: ADME, organism-based; settings: in vivo, read-out: Vdss
# [14] = Apparent half life in Sprague-Dawley rat at 3 mg/kg, po administered via gavage measured up to 24 hrs by LC-MS analysis; type: ADME, organism-based; settings: in vivo
# [15] = AUC (0 to infinity) in Sprague-Dawley rat at 3 mg/kg, po administered via gavage measured up to 24 hrs by LC-MS analysis; type: ADME, organism-based; design: dose 3 mg/kg, route oral, time infinity; settings: in vivo
# [16] = Oral bioavailability in Sprague-Dawley rat at 3 mg/kg administered via gavage measured up to 24 hrs by LC-MS analysis; type: ADME, organism-based; settings: in vivo
# [17] = AUC (0 to infinity) in Sprague-Dawley rat at 33 mg/kg, po administered via gavage measured up to 24 hrs by LC-MS analysis; type: ADME, organism-based; design: dose 33 mg/kg, time infinity, route oral; settings: in vivo
# [18] = Cmax in NOD-SCID IL2Rgamma null mouse blood infected with Plasmodium falciparum 3D70087/N9 at 10 mg/kg, po qd for 4 days starting from 3 days post infection and measured after 24 hrs post dose by LC-MS/MS analysis; type: ADME, organism-based; design: dose 10 mg/kg, route oral
# [19] = AUC (0 to 23 hrs) in NOD-SCID IL2Rgamma null mouse blood infected with Plasmodium falciparum 3D70087/N9 at 10 mg/kg, po qd for 4 days starting from 3 days post infection and measured after 24 hrs post dose by LC-MS/MS analysis; type: ADME, organism-based; design: dose 10 mg/kg, time < 23 hr, route oral
# Albumin [20] = biological target: T1, Albumin; test: Binding affinity to albumin (unknown origin) by chromatographic method; type: ADME; settings: albumin, read-out: PB (converted)
# Cytochrome P450 1A2 = biological target: T3, Cytochrome P450 1A2 (Homo sapiens, UniProt P05177); test: Time-dependent inhibition of CYP1A2 in human liver microsomes using phenacetin as substrate in presence of NADPH regenerating system by UPLC-MS analysis; type: ADME
# T3 sequence (P05177 whole entry): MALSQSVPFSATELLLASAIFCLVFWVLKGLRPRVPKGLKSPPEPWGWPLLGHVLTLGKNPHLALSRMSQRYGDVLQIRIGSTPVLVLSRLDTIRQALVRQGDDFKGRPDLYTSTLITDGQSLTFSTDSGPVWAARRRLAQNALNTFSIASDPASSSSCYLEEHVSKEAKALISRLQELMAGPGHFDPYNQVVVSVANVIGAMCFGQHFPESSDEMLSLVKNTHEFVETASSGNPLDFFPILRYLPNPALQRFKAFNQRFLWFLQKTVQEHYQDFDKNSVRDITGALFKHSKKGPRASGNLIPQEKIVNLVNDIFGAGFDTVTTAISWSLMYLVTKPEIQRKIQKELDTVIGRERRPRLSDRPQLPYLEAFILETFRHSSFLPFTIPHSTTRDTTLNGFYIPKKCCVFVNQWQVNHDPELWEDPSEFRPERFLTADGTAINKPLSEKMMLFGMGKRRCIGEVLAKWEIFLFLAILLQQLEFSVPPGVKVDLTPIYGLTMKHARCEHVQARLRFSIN
# Cytochrome P450 2C9 [21] = biological target: T4, Cytochrome P450 2C9 (Homo sapiens, UniProt P11712); test: Time-dependent inhibition of CYP2C9 in human liver microsomes using tolbutamide as substrate in presence of NADPH regenerating system by UPLC-MS analysis; type: ADME
# T4 sequence (P11712 whole entry): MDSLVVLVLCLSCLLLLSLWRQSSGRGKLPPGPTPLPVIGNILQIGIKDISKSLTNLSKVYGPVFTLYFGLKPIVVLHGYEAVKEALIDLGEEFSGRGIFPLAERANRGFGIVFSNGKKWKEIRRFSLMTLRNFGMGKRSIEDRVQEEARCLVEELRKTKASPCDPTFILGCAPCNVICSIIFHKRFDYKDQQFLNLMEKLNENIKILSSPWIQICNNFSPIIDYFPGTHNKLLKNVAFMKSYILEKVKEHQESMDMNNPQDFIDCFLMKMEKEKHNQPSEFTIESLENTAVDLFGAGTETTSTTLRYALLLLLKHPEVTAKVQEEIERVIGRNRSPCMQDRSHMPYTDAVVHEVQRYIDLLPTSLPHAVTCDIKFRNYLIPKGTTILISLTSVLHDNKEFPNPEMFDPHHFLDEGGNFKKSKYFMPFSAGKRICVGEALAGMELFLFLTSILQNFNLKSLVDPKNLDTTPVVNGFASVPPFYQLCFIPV
# Cytochrome P450 2C19 [22] = biological target: T2, Cytochrome P450 2C19; test: Time-dependent inhibition of CYP2C19 in human liver microsomes using (S)-mephenytoin as substrate in presence of NADPH regenerating system by UPLC-MS analysis; type: ADME
# Cytochrome P450 2C9 [23] = biological target: T4, Cytochrome P450 2C9; test: Time-dependent inhibition of CYP2C9 in human liver microsomes using tolbutamide as substrate in absence of NADPH regenerating system by UPLC-MS analysis; type: ADME
# Cytochrome P450 2C19 [24] = biological target: T2, Cytochrome P450 2C19; test: Time-dependent inhibition of CYP2C19 in human liver microsomes using (S)-mephenytoin as substrate in absence of NADPH regenerating system by UPLC-MS analysis; type: ADME
# Cytochrome P450 2D6 = Cytochrome P450 2D6 (Homo sapiens, UniProt P10635); test: Time-dependent inhibition of CYP2D6 in human liver microsomes using dextromethorphan as substrate in absence of NADPH regenerating system by UPLC-MS analysis; type: ADME
# Sequence of Cytochrome P450 2D6 (P10635 whole entry): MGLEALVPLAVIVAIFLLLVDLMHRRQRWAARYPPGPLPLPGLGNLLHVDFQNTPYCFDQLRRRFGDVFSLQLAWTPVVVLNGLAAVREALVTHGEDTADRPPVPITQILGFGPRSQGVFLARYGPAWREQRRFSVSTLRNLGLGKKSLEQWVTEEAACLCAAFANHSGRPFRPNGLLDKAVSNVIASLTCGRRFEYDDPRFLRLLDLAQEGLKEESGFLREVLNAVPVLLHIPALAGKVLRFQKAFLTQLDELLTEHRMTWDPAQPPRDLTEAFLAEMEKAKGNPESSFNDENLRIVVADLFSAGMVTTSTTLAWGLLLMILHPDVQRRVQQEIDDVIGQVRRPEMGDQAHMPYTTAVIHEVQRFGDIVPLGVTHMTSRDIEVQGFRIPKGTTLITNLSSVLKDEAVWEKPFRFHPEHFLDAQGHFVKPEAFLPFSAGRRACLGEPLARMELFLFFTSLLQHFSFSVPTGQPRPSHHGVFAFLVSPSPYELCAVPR
# [25] = simulated gi fluid, pH 1.6
# physchem = settings: octanol/water, pH 7.4
# CYP3A4/5 [26] = biological target: T5, CYP3A4/5 (Homo sapiens, UniProt P08684+P20815); test: in vitro; settings: liver microsomes, probe testosterone
# CYP3A4/5 [27] = biological target: T5, CYP3A4/5; test: in vitro; settings: liver microsomes, probe midazolam
# Plasmodium falciparum = test: animal or person; settings: 3D70087/N9, in Mus musculus, po, 96 h
# [28] = Cmax in Swiss mouse blood at 10.5 mg/kg, po via gavage measured up to 24 hrs by UPLC-MS analysis; settings: in vivo
smiles,measurement,setting,value
Cc1c(Cc2ccc(C(F)(F)F)nc2)c[nH]c1C(=O)NC1CC1,EC50,[1],> 20 µM
same,fraction unbound,[2],0.118
same,fraction unbound,Albumin [3],0.482
same,IC50,Cytochrome P450 2C19 [4],> 20 µM
same,AUC,[5],5.6 µM·h
same,t1/2(app),[6],2.6 h
same,Cmax,[7],6.7 µM
same,F,[8],> 100%
same,Cmax,[9],33.8 µM
same,AUC,[10],176 µM·h
same,half-life,[11],14.6 h
same,clearance,[12],28.6 mL/min/kg
same,Vd,[13],4.7 L/kg
same,t1/2(app),[14],3.9 h
same,AUC,[15],5.1 µM·h
same,F,[16],91%
same,AUC,[17],204 µM·h
same,Cmax,[18],0.6 µM
same,AUC at 23 h,[19],2.1 µM·h
same,fraction unbound,Albumin [20],0.238
same,TDI,Cytochrome P450 1A2,Not Active
same,TDI,Cytochrome P450 2C9 [21],Not Active
same,TDI,Cytochrome P450 2C19 [22],Not Active
same,TDI,Cytochrome P450 2C9 [23],Not Active
same,TDI,Cytochrome P450 2C19 [24],Not Active
same,TDI,Cytochrome P450 2D6,Active
same,solubility,[25],46.4 µg/mL
same,logD,physchem,2.8
same,IC50,CYP3A4/5 [26],> 20 µM
same,IC50,CYP3A4/5 [27],5.5 µM
same,ED90,Plasmodium falciparum,50 mg/kg/day
same,Cmax,[28],3.7 µM
